Data from US5202350A, “Furanone anti-inflammatory agents” (Bristol-Myers Squibb Co., priority 1991, dated 1993).

Tests used:
[1] = molecular target: T1, human platelet phospholipase A2 (Homo sapiens, UniProt P14555); assay: PLA2 Inhibition Assay (14C-oleate labeled E. coli membrane substrate); format: biochemical; details: human platelet PLA2, pH 7, 37° C., 7 min preincubation, 30 min incubation
T1 construct: The enzyme was isolated from human platelets; from tissue; host or cells: human platelets
T1 sequence (P14555 21-144): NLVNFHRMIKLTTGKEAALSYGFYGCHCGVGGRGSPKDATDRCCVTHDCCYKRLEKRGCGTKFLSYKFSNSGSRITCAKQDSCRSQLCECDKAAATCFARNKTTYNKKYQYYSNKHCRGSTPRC
Procedure: The utility of the compounds of the instant invention is shown by their inhibitory activity toward human platelet phospholipase A2 and their in vivo anti-inflammatory activity. The activity against human platelet phospholipase A2 was determined as described below:
The method used is similar to that reported by Franson, et al. [Jesse R. L. and Franson R. C., Biochim Biophys Acta 575:467-470 (1979), Franson R. C., Patriarca P., and Elsback P., J Lipid Res 15:380-388 (1974)]. The enzyme was isolated from human platelets. The substrate used consisted of ^14 C-oleate labeled Escherichia coli membranes. E. coli cells were grown in the presence of ^14 C-oleic acid and then autoclaved to prepare the membranes.
Various concentrations of test compounds are preincubated with PLA2 (3.6 μg/ml in a buffer consisting of 25 mM HEPES (pH 7), 150 mM NaCl, 5.0 mM CaCl2, and 10% DMSO (v/v, test compound solvent) at 37° C. for 7 minutes. The E. coli membrane substrate is then added (0.1 mM phospholipid, 0.005 μCi ^14 C) and the reaction is then incubated at 37° C. for 30 minutes. The reaction is terminated by the addition of 1.9 ml tetrahydrofuran (THF), and the entire solution is applied to a solid-phase extraction column (aminopropyl resin, Analytichem). The column is rinsed with an additional 1 ml of THF. The free fatty acid product of the reaction is then eluted from the column with 1 ml of 2% acetic acid (v/v) in THF and collected in a scintillation vial. The amount of free fatty acid product is determined by liquid scintillation counting. The amount of inhibition produced by the test compound is calculated by comparing the counts obtained in the presence of the compound to those obtained in its absence (solvent only). Background counts were determined by performing incubations in the absence of enzyme.
Percent inhibition is determined by the equation: [formula]
IC50 values (the concentration of inhibitor required to produce 50% inhibition) were determined by linear regression analysis of a plot of % inhibition versus log test compound concentration.

ears of CD-1 mice = assay: Inhibition of Phorbol-Ester-Induced inflammation (TPA ear edema); format: in vivo; details: topical, six hours
Text: The method used is similar to that reported by Young, et al. [Young J. M., Wagner B. M., Spires D. A., J Invest Dermatol, 80:48-52(1983); DeYound L. M., Kheifets J. B., Ballaron S. J., Young J. M., Agents Actions 26:335-341 (1989)]. An inflammatory reaction is induced by the topical application of 0.01% (w/v) […] (TPA) to the ears of CD-1 mice. An acute inflammatory reaction is produced, resulting in ear edema. TPA, with and without various concentrations of test compound, was applied to the inner and outer aspects of the ear surface (10 μl/surface). After six hours, the mice were sacrificed and the ears removed. Ear tissue punches (5/16") were taken from each ear and weighed to measure edema.
The anti-inflammatory activity of the test compounds was determined by comparing the edema produced by TPA without test compound to that produced in its presence.
Percent inhibition values were determined by the equation: [formula]

Row | IC50 [1] | Structure (SMILES) | also measured
1 | 525 µM | CCCCCCCCCCC1CC(O)OC1=O (centres unmarked) [Example 3, 3-n-Decyl-5-Hydroxy-3,4-Dihydro-Furan-2-One] | 
2 | 17 µM | CCCCCCCCCCCC1CC(O)OC1=O (centres unmarked) [Example 5, 3-n-Undecyl-5-Hydroxy-3,4-Dihydro-Furan-2-One] | % Inhibition of Ear Edema (ears of CD-1 mice; dose 2.6% (w/v)): 34.6%
3 | 18 µM | CCCCCCCCCCCCC1CC(O)OC1=O (centres unmarked) [Example 7, 3-n-Dodecyl-5-Hydroxy-3,4-Dihydro-Furan-2-One] | 
4 | 379 µM | O=C1OC(O)CC1CCCCCCCc1ccccc1 (centres unmarked) [Example 9] | 
5 | > 500 µM | CCCCCC1CC(O)OC1=O (centres unmarked) [Example 11, 3-n-Amyl-5-Hydroxy-3,4-Dihyro-Furan-2-One] | 
6 | 59 µM | CCCCCCCCCCCCCCCCC1CC(O)OC1=O (centres unmarked) [Example 13, 3-n-Hexadecyl-5-Hydroxy-3,4-Dihydro-Furan-2-One] | % Inhibition of Ear Edema (ears of CD-1 mice; dose 2.5% (w/v)): 6.8%; % Inhibition of Ear Edema (ears of CD-1 mice; dose 5.0% (w/v)): 24.6%; % Inhibition of Ear Edema (ears of CD-1 mice; dose 7.5% (w/v)): 33.5%; % Inhibition of Ear Edema (ears of CD-1 mice; dose 10% (w/v)): 45%
